Measurements as given in patent US7312248B2, “Control of parasites in animals by the use of novel trifluoromethanesulfonanilide oxime ether derivatives” (Schering-Plough Animal Health Corporation, priority 2004, dated 2007).
Read-outs that look alike come from different tables or passages of the source.

How the values were obtained:
Haemonchus contortus = Haemonchus contortus larvacidal (larval development) assay; type: in vivo; conditions: 144 h, read-out: Haemonchus contortus LD99
Method: a) Haemonchus Contortus Larvacidal Assay:
The effect of compounds on larval development was determined in the assay described by Gill et al. (1995, International Journal of Parasitology 25:463-470). Briefly, in this assay, nematode eggs were applied to the surface of an agar matrix containing the test compound and then allowed to develop through to the L3, infective stage (6 days). The wells for each dilution of every compound (from highest to lowest concentration) were inspected to determine the well number corresponding to the lowest concentration at which development was inhibited in 99% of the nematode larvae present (LD99). Because well numbers correspond to a two-fold serial dilution of each compound, a titre (dilution factor) is generated as 2^n−1, where n is the well number. By dividing the highest concentration tested by the titre an LD99 value can be obtained, representing the concentration required to inhibit development in 99% of the nematode larvae present. The compounds supplied as solid and viscous liquids were dissolved in DMSO. Twelve serial one-half dilutions in DMSO solution were prepared from the stock solution, each of which was then diluted ⅕ with water. Aliquots (10 μl) of each dilution were transferred to the bioassay plates to give a final concentration range of 0.024 to 50 μg/ml.

[1] = system: cat flea (Ctenocephalides felis); assay: whole plant or invertebrate; type: in vivo; conditions: for mortality at 1.26 µg/cm2, 1.26 µg/cm2 / mortality at 1.26 µg/cm2: Ctenocephalides felis
Method: b) Ctenocephalides felis Adulticide Assay: C. felis Single Dose Screen
Mortality of fleas was the primary endpoint in the assay. Fleas were considered dead if they didn't move or were on their sides and unable to walk or right themselves. […] The concentration chosen (1.26 μg/cm^2) was higher than that known to kill 90% of cat fleas (LC90) using the reference compound, permethrin.
The test species was the cat flea (Ctenocephalides felis). The strain used was obtained from external suppliers as pupae and held in the laboratory under testing conditions until the adults had emerged. Fifteen (15) fleas were used in a minimum of four replicates against a single concentration level (approximately 60 fleas). The insects were selected to be in the adult life stage, aged between 3 and 7 days post emergence.
The compounds to be tested were supplied as solids and were prepared in acetone as described below prior to testing. Samples were stored in a refrigerator (5±1° C.) unless otherwise specified.
During the mortality testing, the temperature was maintained at 25±1° C. Humidity was maintained at 75±5%. The base (area=159 mm^2) of a 100 mL glass Erlenmeyer (conical) flask provided the treatment surface. Flasks were pretreated with Coatasil™ glass treatment to maximise bio-availability of test compounds by preventing them from binding to glass the surface. The base of the 100 mL Erlenmeyer flask was treated with 0.5 mL of test sample in acetone and gently swirled. This volume was sufficient to cover the base of the flask. Flasks were left to dry for 24 hours before flea exposure.
Adult cat fleas were placed into a sorting chamber, which allowed fleas to jump into the Erlenmeyer flasks. Fifteen (15) adult cat fleas were collected in each flask. The top of the flasks were then covered in Parafilm™ and small holes were made to allow gas exchange. A 0.5 mL volume of acetone as a solvent control was applied to the base of an Erlenmeyer flask and the testing proceeded in the same manner described above. Cat fleas in the treatment containers were held under testing conditions for 8, 24 and/or 48 hours. Mortality was recorded at 8, 24, 8 and 24, or 24 and 48 hours. Pooled 8, 24, 8 and 24, and 24 and 48 hour mortality data were converted to percentages and are summarized by Tables 14, 14A and 14B, below.

[2] = 24 h, read-out: C. felis Mortality (%) 24 h, 24 h, Laboratory 1 A data
[3] = 24 h, read-out: C. felis Mortality (%) 24 h, 24 h, Laboratory 2 B data
[4] = 48 h, read-out: C. felis Mortality (%) 48 h, 48 h, Laboratory 2 B data
[5] = 24 h, single concentration 1.26 μg/cm^2 on treated glass, adult fleas, Laboratory 2 B data, read-out: Ctenocephalides felis Mortality (%) 24 h
[6] = 24 h, read-out: Ctenocephalides felis Mortality (%) 24 h
[7] = 48 h, read-out: Ctenocephalides felis Mortality (%) 48 h

SMILES | IC99 (Haemonchus contortus) | mortality at 1.26 µg/cm2, 1.26 µg/cm2 [1, 2] | further results
CC/C(=N\OCc1ccc(-c2ccccc2)cc1)c1cc(Cl)ccc1NS(=O)(=O)C(F)(F)F [Compound 94] | 7.5 µg/mL | – | –
CCC/C(=N\OCCc1ccccc1)c1cc(Cl)ccc1NS(=O)(=O)C(F)(F)F [Compound 110] | 5 µg/mL | – | –
CCC/C(=N\OCc1cccc(Cl)c1Cl)c1cc(Cl)ccc1NS(=O)(=O)C(F)(F)F [Compound 99] | 2.5 µg/mL | – | –
O=S(=O)(Nc1ccc(Cl)cc1/C(=N/OCc1ccc(Cl)cc1)c1ccccc1)C(F)(F)F [Compound 63] | 1.6 µg/mL | – | –
C/C(=N\OCc1ccccc1C(F)(F)F)c1cc(Cl)ccc1NS(=O)(=O)C(F)(F)F [Compound 13] | 3 µg/mL | – | –
CCC/C(=N\OCc1cc(Br)cc(Br)c1)c1cc(Cl)ccc1NS(=O)(=O)C(F)(F)F [Compound 113] | 3.8 µg/mL | – | –
C/C(=N\OCc1ccccc1F)c1cc(Cl)ccc1NS(=O)(=O)C(F)(F)F [Compound 39] | 7 µg/mL | – | –
O=S(=O)(Nc1ccc(Cl)cc1/C(=N/OCc1cccc(Cl)c1)c1ccccc1)C(F)(F)F [Compound 71] | 3 µg/mL | – | –
O=S(=O)(Nc1ccc(Cl)cc1/C(=N/OCc1cccc(C(F)(F)F)c1)c1ccccc1)C(F)(F)F [Compound 68] | 3.5 µg/mL | – | –
O=S(=O)(Nc1ccc(Cl)cc1/C(=N/OCc1ccc(Br)cc1)c1ccccc1)C(F)(F)F [Compound 64, N-{2-[(4-bromobenzyloxyimino)phenylmethyl]-4-chlorophenyl}trifluoromethanesulfonamide] | 1.4 µg/mL | – | –
C/C(=N\OCc1ccc([N+](=O)[O-])cc1)c1cc(Cl)ccc1NS(=O)(=O)C(F)(F)F [Compound 4] | 2.5 µg/mL | – | –
C/C(=N\OC(C)c1ccccc1)c1cc(Cl)ccc1NS(=O)(=O)C(F)(F)F (stereo not shown) [Compound 122] | 7 µg/mL | – | –
CC/C(=N\OCc1ccc(F)cc1)c1cc(Cl)ccc1NS(=O)(=O)C(F)(F)F [Compound 86] | 3.5 µg/mL | – | –
CC(C)/C(=N\OCc1ccc(Cl)cc1Cl)c1cc(Cl)ccc1NS(=O)(=O)C(F)(F)F [Compound 119] | 1.2 µg/mL | – | –
C/C(=N\OCc1ccccc1Cl)c1cc(Cl)ccc1NS(=O)(=O)C(F)(F)F [Compound 17] | 3.5 µg/mL | – | –
C/C(=N\OCc1ccc(Br)cc1)c1cc(Cl)ccc1NS(=O)(=O)C(F)(F)F [Compound 23] | 0.8 µg/mL | – | –
CC/C(=N\Oc1ccccc1C)c1cc(Cl)ccc1NS(=O)(=O)C(F)(F)F [Compound 150] | – | 48% | –
CCO/N=C(\C)c1cc(Cl)ccc1NS(=O)(=O)C(F)(F)F [Compound 36] | – | 100% | –
CC/C(=N\OC(C)C1CC1)c1cc(Cl)ccc1NS(=O)(=O)C(F)(F)F (stereo not shown) [Compound 254] | – | – | mortality at 1.26 µg/cm2, 1.26 µg/cm2 [1, 3]: 84%; mortality at 1.26 µg/cm2, 1.26 µg/cm2 [1, 4]: 100%
C/C(=N\Oc1ccc(C)cc1)c1cc(Cl)ccc1NS(=O)(=O)C(F)(F)F [Compound 141] | – | 41% | –
CO/N=C(\C)c1cccc(OC)c1NS(=O)(=O)C(F)(F)F [Compound 40] | – | 45% | –
CC/C(=N\Oc1ccc(C(F)(F)F)cc1)c1cc(Cl)ccc1NS(=O)(=O)C(F)(F)F [Compound 145] | – | 9% | –
CCOC(=O)N(c1ccc(Cl)cc1/C(CC)=N/OCC1CCCCC1)S(=O)(=O)C(F)(F)F [Compound 313] | – | – | mortality at 1.26 µg/cm2 ([1]; 8 h, single concentration 1.26 μg/cm^2 on treated glass, adult fleas, Laboratory 2 B data, read-out: Ctenocephalides felis Mortality (%) 8 h): 0%; mortality at 1.26 µg/cm2 [1, 5]: 59%
C/C(=N\OC(C)C)c1cccc(C)c1NS(=O)(=O)C(F)(F)F [Compound 57] | – | 77% | –
C/C(=N\OC(C)c1ccc(Cl)cc1Cl)c1cc(Cl)ccc1NS(=O)(=O)C(F)(F)F (stereo not shown) [Compound 258] | – | – | mortality at 1.26 µg/cm2, 1.26 µg/cm2 ([1]; 8 h, read-out: C. felis Mortality (%) 8 h, 8 h, Laboratory 2 B data): 8%; mortality at 1.26 µg/cm2, 1.26 µg/cm2 [1, 3]: 88%

SMILES | IC99 (Haemonchus contortus) | mortality at 1.26 µg/cm2, 1.26 µg/cm2 [1, 2] | further results
C/C(=N\OCC#N)c1cc(Cl)ccc1NS(=O)(=O)C(F)(F)F [Compound 160] | – | 42% | –
C/C(=N\Oc1ccc(F)cc1)c1cc(Cl)ccc1N(COC(=O)C(C)(C)C)S(=O)(=O)C(F)(F)F [Compound 305] | – | – | mortality at 1.26 µg/cm2 [1, 6]: 1%; mortality at 1.26 µg/cm2 [1, 7]: 21%
CCO/N=C(\CC)c1cc(Cl)ccc1NS(=O)(=O)C(F)(F)F [Compound 37] | – | 29% | –
CSCO/N=C(\C)c1cc(Cl)ccc1NS(=O)(=O)C(F)(F)F [Compound 124] | – | 100% | –
CC/C(=N\OCCC(C)C)c1cc(Cl)ccc1NS(=O)(=O)C(F)(F)F [Compound 248] | – | – | C. felis Mortality (%) 24 h ([1]; 24 h, Laboratory 2 B data): 96^B %; C. felis Mortality (%) 48 h ([1]; 48 h, Laboratory 2 B data): 100%
CCOC(=O)N(c1ccc(Cl)cc1/C(CC)=N/OCc1ccc(Cl)cc1)S(=O)(=O)C(F)(F)F [Compound 306] | – | – | mortality at 1.26 µg/cm2 [1, 5]: 0%; mortality at 1.26 µg/cm2 ([1]; 48 h, single concentration 1.26 μg/cm^2 on treated glass, adult fleas, Laboratory 2 B data, read-out: Ctenocephalides felis Mortality (%) 48 h): 48%
O=S(=O)(Nc1ccc(Cl)cc1/C(=N/OCC1CCCCC1)c1ccccc1)C(F)(F)F [Compound 180] | – | 8% | –
O=S(=O)(Nc1ccc(Cl)cc1/C(=N/OC1CCCCC1)c1ccccc1)C(F)(F)F [Compound 179] | – | 12% | –
CC/C(=N\OCC1CCCCC1)c1cc(Cl)ccc1N(C)S(=O)(=O)C(F)(F)F [Compound 300] | – | – | mortality at 1.26 µg/cm2 [1, 6]: 0%; mortality at 1.26 µg/cm2 [1, 7]: 9%
CO/N=C(\c1ccccc1)c1ccccc1NS(=O)(=O)C(F)(F)F [Compound 30] | – | 62% | –
CC/C(=N\OCC=C(C)C)c1cc(Cl)ccc1NS(=O)(=O)C(F)(F)F [Compound 250] | – | – | mortality at 1.26 µg/cm2, 1.26 µg/cm2 [1, 3]: 97%; mortality at 1.26 µg/cm2, 1.26 µg/cm2 [1, 4]: 100%
CC/C(=N\OC(C)C)c1cc(Cl)ccc1NS(=O)(=O)C(F)(F)F [Compound 154] | – | 100% | –
CC/C(=N\OC)c1cc(Cl)ccc1NS(=O)(=O)C(F)(F)F [Compound 34] | – | 100% | –
CC/C(=N\OCC1CCCCC1)c1cc(Cl)ccc1N(COC(=O)C(C)(C)C)S(=O)(=O)C(F)(F)F [Compound 304] | – | – | mortality at 1.26 µg/cm2 [1, 6]: 0%; mortality at 1.26 µg/cm2 [1, 7]: 81%
O=S(=O)(Nc1ccc(Cl)cc1/C(=N/OC1CCCC1)c1ccccc1)C(F)(F)F [Compound 162] | – | 14% | –
CCC(C)O/N=C(\C)c1cccc(C)c1NS(=O)(=O)C(F)(F)F (stereo not shown) [Compound 58] | – | 25% | –
C/C(=N\Oc1ccc(C(F)(F)F)cc1)c1cc(Cl)ccc1NS(=O)(=O)C(F)(F)F [Compound 143] | – | 7% | –
C/C(=N\OC1C=CCCC1)c1ccc(C(F)(F)F)cc1NS(=O)(=O)C(F)(F)F (stereo not shown) [Compound 238] | – | – | mortality at 1.26 µg/cm2, 1.26 µg/cm2 [1, 3]: 61%; mortality at 1.26 µg/cm2, 1.26 µg/cm2 [1, 4]: 84%
C/C(=N\Oc1ccccc1C)c1cc(Cl)ccc1NS(=O)(=O)C(F)(F)F [Compound 149] | – | 17% | –
CC/C(=N\Oc1ccc(OC(F)(F)F)cc1)c1cc(Cl)ccc1NS(=O)(=O)C(F)(F)F [Compound 152] | – | 61% | –
CCCO/N=C(\c1ccccc1)c1cc(Cl)ccc1NS(=O)(=O)C(F)(F)F [Compound 251] | – | – | C. felis Mortality (%) 24 h ([1]; 24 h, Laboratory 2 B data): 32^B %; mortality at 1.26 µg/cm2, 1.26 µg/cm2 [1, 4]: 100%
C/C(=N\Oc1ccc(F)c(Cl)c1)c1cc(Cl)ccc1NS(=O)(=O)C(F)(F)F [Compound 144] | – | 15% | –
O=S(=O)(Nc1ccc(Cl)cc1-c1noc2c1CCCC2)C(F)(F)F [Compound 294] | – | – | mortality at 1.26 µg/cm2 ([1]; 8 h, read-out: Ctenocephalides felis Mortality (%) 8 h): 3%; mortality at 1.26 µg/cm2 [1, 6]: 40%
CCO/N=C(\C)c1ccc(F)cc1NS(=O)(=O)C(F)(F)F [Compound 51] | – | 100% | –
